Data from US8119681B2, “2-[1-phenyl-5-hydroxy or methoxy-4alpha-methyl-hexahydrocyclopenta [ƒ]indazole-5-YL]ethyl phenyl derivatives as glucocorticoid receptor ligands” (Merck Sharp & Dohme Corp., priority 2006, dated 2012).
Where two headings read alike, the source gives them in different places.

Biological target: T1, human GR (Homo sapiens, UniProt P04150)
T1 sequence (P04150 1-777): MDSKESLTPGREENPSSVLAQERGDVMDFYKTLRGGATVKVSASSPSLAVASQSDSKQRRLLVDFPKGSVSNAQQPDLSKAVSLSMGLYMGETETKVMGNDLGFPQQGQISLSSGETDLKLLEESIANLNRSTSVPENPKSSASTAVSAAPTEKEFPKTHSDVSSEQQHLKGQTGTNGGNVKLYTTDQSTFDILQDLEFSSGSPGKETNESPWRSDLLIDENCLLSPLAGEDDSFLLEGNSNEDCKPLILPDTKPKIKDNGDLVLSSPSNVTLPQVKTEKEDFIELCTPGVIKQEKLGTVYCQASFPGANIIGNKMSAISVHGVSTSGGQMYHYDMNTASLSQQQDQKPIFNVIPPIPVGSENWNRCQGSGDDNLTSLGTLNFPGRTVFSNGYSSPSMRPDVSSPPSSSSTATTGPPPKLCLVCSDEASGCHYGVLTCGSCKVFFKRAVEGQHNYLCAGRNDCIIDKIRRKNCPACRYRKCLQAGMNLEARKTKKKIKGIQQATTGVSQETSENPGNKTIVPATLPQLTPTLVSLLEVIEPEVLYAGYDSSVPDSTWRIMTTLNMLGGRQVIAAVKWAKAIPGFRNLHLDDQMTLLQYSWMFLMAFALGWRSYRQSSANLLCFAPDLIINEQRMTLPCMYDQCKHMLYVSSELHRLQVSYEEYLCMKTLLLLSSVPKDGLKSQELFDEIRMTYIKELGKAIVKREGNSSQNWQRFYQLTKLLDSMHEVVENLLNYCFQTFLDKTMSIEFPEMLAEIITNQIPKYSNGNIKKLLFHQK
Test: Transrepression Assay (GITAR), TNFα-β-lactamase reporter gene in U937 cells
Assay type: cell-based
Design: U937 cells contain an endogenous glucocorticoid receptor (GR); endogenous in cells; host or cells: U937 cells stably transfected with the TNF-α promoter/β-lactamase reporter only
Conditions: for EC50: IP = inflection point; for GITAR > GRAMM % SEP: separation of GITAR Emax over GRAMMER Emax; for Emax: U-937
How it was run: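 Reporter readout used CCF2-AM loading for 70–90 min at room temperature after overnight (~18 h, 37 °C) PMA (5 ng/ml final) and LPS (100 ng/ml final) stimulation of compound-treated (30–45 min) TNFα-β-lactamase U937 cells expressing native GR. Activity was normalised to 100 nM dexamethasone repression.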

[1] = Table 1, U937 cells, read-out: Transrepression U937 Cells GITAR IP
[2] = 100 nM dexamethasone = 100% activity, read-out: maximal activity in the transrepression assay
[3] = Table 1, U937 cells, activity repressed by 100 nM dexamethasone = 100%, read-out: Transrepression U937 Cells GITAR Emax (%)
[4] = Table 2, U937 cells, read-out: Transactiviation U937 Cells GITAR IP
[5] = Table 2, U937 cells, activity repressed by 100 nM dexamethasone = 100%, read-out: Transactiviation U937 Cells GITAR Emax (%)

EC50 [1] | GITAR > GRAMM % SEP (Table 1) | Emax [2] | Emax [3] | EC50 [4] | GITAR > GRAMM % SEP (Table 2) | Emax [5] | Structure (SMILES)
197 nM | 23% | 5 to 100% | 52% | – | – | – | C[C@]12Cc3cnn(-c4ccc(F)cc4)c3C=C1CC[C@@]2(O)CCc1ccccc1C(F)C(N)=O (single isomer, unassigned) [Example 198]
33 nM | 29% | 5 to 100% | 78% | – | – | – | Cc1cccc(CC[C@]2(O)CCC3=Cc4c(cnn4-c4cccc(F)c4)C[C@@]32C)c1C(N)=O [Example 191, 2-{2-[(4αS,5R)-1-(3-fluorophenyl)-5-hydroxy-4α-methyl-1,4,4α,5,6,7-hexahydrocyclopenta[f]indazol-5-yl]ethyl}-6-methylbenzamide]
189 nM | 22% | 5 to 100% | 69% | – | – | – | C[C@]12Cc3cnn(-c4ccc(F)cc4)c3C=C1CC[C@@]2(O)CCc1ccccc1C(=O)N1CC(=O)C1 [Example 156, 1-(2-{2-[(4αS,5R)-1-(4-fluorophenyl)-5-hydroxy-4α-methyl-1,4,4α,5,6,7-hexahydrocyclopenta[f]indazol-5-yl]ethyl}benzoyl)azetidin-3-one]
154 nM | 29% | 5 to 100% | 74% | – | – | – | COC(=O)C(C)(C)NC(=O)c1ccccc1CC[C@]1(O)CCC2=Cc3c(cnn3-c3ccc(F)cc3)C[C@@]21C [Example 52, methyl N-(2-{2-[(4αS,5R)-1-(4-fluorophenyl)-5-hydroxy-4α-methyl-1,4,4α,5,6,7-hexahydrocyclopenta[f]indazol-5-yl]ethyl}benzoyl)-2-methylalaninate]
170 nM | 14% | 5 to 100% | 62% | – | – | – | CC(C)NC(=O)c1ccccc1CC[C@]1(O)CCC2=Cc3c(cnn3-c3ccc(F)cc3)C[C@@]21C [Example 35, 2-{2-[(4αS,5R)-1-(4-fluorophenyl)-5-hydroxy-4α-methyl-1,4,4α,5,6,7-hexahydrocyclopenta[f]indazol-5-yl]ethyl}-N-isopropylbenzamide]
205 nM | 12% | 5 to 100% | 71% | – | – | – | C[C@]12Cc3cnn(-c4ccc(F)cc4)c3C=C1CC[C@@]2(O)CCc1ccccc1C(=O)N1CCCC1 [Example 47, (4αS,5R)-1-(4-fluorophenyl)-4α-methyl-5-{2-[2-(pyrrolidin-1-ylcarbonyl)phenyl]ethyl}-1,4,4α,5,6,7-hexahydrocyclopenta[f]indazol-5-ol]
242 nM | 36% | 5 to 100% | 79% | – | – | – | C[C@]12Cc3cnn(-c4ccc(F)cc4)c3C=C1CC[C@@]2(O)CCc1ccccc1NS(=O)(=O)C1CC1 [Example 15, N-(2-{2-[(4αS,5R)-1-(4-fluorophenyl)-5-hydroxy-4α-methyl-1,4,4α,5,6,7-hexahydrocyclopenta[f]indazol-5-yl]ethyl}phenyl)cyclopropanesulfonamide]
52 nM | 19% | 5 to 100% | 77% | – | – | – | C[C@]12Cc3cnn(-c4ccc(F)c(F)c4)c3C=C1CC[C@@]2(O)CCc1cccc(F)c1C(N)=O [Example 168, 2-{2-[(4α,5R)-1-(3,4-difluorophenyl)-5-hydroxy-4α-methyl-1,4,4α,5,6,7-hexahydrocyclopenta[f]indazol-5-yl]ethyl}-6-fluorobenzamide]
212 nM | – | 5 to 100% | 70% | – | – | – | C[C@]12Cc3cnn(-c4ccc(F)cc4)c3C=C1CC[C@@]2(O)CCc1ccccc1S(=O)(=O)C1CC1 [Example 144, (4αS,5R)-5-{2-[2-(cyclopropylsulfonyl)phenyl]ethyl}-1-(4-fluorophenyl)-4α-methyl-1,4,4α,5,6,7-hexahydrocyclopenta[f]indazol-5-ol]
– | – | – | – | 270 nM | −3% | 88% | C[C@]12Cc3cnn(-c4ccc(F)cc4)c3C=C1CCC[C@@]2(O)CCc1ccccc1Cl [Example 41 WO 2004/075840 A2, reference compound]
115 nM | 44% | 5 to 100% | 62% | – | – | – | COC(=O)C(C)(C)NC(=O)c1c(F)cccc1CC[C@]1(O)CCC2=Cc3c(cnn3-c3ccc(F)cc3)C[C@@]21C [Example 41, methyl N-(2-fluoro-6-{2-[(4αS,5R)-1-(4-fluorophenyl)-5-hydroxy-4α-methyl-1,4,4α,5,6,7-hexahydrocyclopenta[f]indazol-5-yl]ethyl}benzoyl)-2-methylalaninate]

Continued, compound first:

Structure (SMILES) | EC50 [1] | GITAR > GRAMM % SEP (Table 1) | Emax [2] | Emax [3] | EC50 [4] | GITAR > GRAMM % SEP (Table 2) | Emax [5]
CC(C)CNC(=O)c1ccccc1CC[C@]1(O)CCC2=Cc3c(cnn3-c3ccc(F)cc3)C[C@@]21C [Example 29, 2-{2-[(4αS,5R)-1-(4-fluorophenyl)-5-hydroxy-4α-methyl-1,4,4α,5,6,7-hexahydrocyclopenta[f]indazol-5-yl]ethyl}-N-isobutylbenzamide] | 190 nM | 37% | 5 to 100% | 61% | – | – | –
C[C@]12Cc3cnn(-c4ccc(F)c(F)c4)c3C=C1CC[C@@]2(O)CCc1ccccc1C(N)=O [Example 172, 2-{2-[(4αS,5R)-1-(3,4-difluorophenyl)-5-hydroxy-4α-methyl-1,4,4α,5,6,7-hexahydrocyclopenta[f]indazol-5-yl]ethyl}benzamide] | 139 nM | 36% | 5 to 100% | 78% | – | – | –
CC(C)C(O)(C(N)=O)c1ccccc1CC[C@]1(O)CCC2=Cc3c(cnn3-c3ccc(F)cc3)C[C@@]21C (stereo partly drawn) [Example 201, 2-(2-{2-[(4αS,5R)-1-(4-fluorophenyl)-5-hydroxy-4α-methyl-1,4,4α,5,6,7-hexahydrocyclopenta[f]indazol-5-yl]ethyl}phenyl)-2-hydroxy-3-methylbutanamide] | 40 nM | 38% | 5 to 100% | 78% | – | – | –
C[C@]12Cc3cnn(-c4ccc(F)cc4)c3C=C1CCC[C@@H]2[C@@H](O)Cc1ccccc1 [Example 22 WO 03/086294 A2, reference compound] | – | – | – | – | 327 nM | −14% | 71%
CN(C)S(=O)(=O)NCc1c(F)cccc1CC[C@]1(O)CCC2=Cc3c(cnn3-c3ccc(F)cc3)C[C@@]21C [Example 89, N′-(2-fluoro-6-{2-[(4αS,5R)-1-(4-fluorophenyl)-5-hydroxy-4α-methyl-1,4,4α,5,6,7-hexahydrocyclopenta[f]indazol-5-yl]ethyl}benzyl)-N,N-dimethylsulfamide] | 64 nM | 50% | 5 to 100% | 70% | – | – | –
CC(C)[C@@H](C)NC(=O)c1c(F)cccc1CC[C@]1(O)CCC2=Cc3c(cnn3-c3ccc(F)cc3)C[C@@]21C [Example 48, N-[(1R)-1,2-dimethylpropyl]-2-fluoro-6-{2-[(4αS,5R)-1-(4-fluorophenyl)-5-hydroxy-4α-methyl-1,4,4α,5,6,7-hexahydrocyclopenta[f]indazol-5-yl]ethyl}benzamide] | 198 nM | 59% | 5 to 100% | 72% | – | – | –
CC1(NC(=O)c2ccccc2CC[C@]2(O)CCC3=Cc4c(cnn4-c4ccc(F)cc4)C[C@@]32C)CC1 [Example 28, 2-{2-[(4αS,5R)-1-(4-fluorophenyl)-5-hydroxy-4α-methyl-1,4,4α,5,6,7-hexahydrocyclopenta[f]indazol-5-yl]ethyl}-N-(1-methylcyclopropyl)benzamide] | 65 nM | 43% | 5 to 100% | 72% | – | – | –
CC(C)S(=O)(=O)NCc1c(F)cccc1CC[C@]1(O)CCC2=Cc3c(cnn3-c3ccc(F)cc3)C[C@@]21C [Example 83, N-(2-fluoro-6-{2-[(4αS,5R)-1-(4-fluorophenyl)-5-hydroxy-4α-methyl-1,4,4α,5,6,7-hexahydrocyclopenta[f]indazol-5-yl]ethyl}benzyl)propane-2-sulfonamide] | 94 nM | 33% | 5 to 100% | 54% | – | – | –
